Measurements taken from ChEMBL document CHEMBL2434905, “2-Amino-6-chloro-3,4-dihydroquinazoline: A novel 5-HT3 receptor antagonist with antidepressant character” (Bioorg Med Chem Lett, 2013).

Columns and labels:
[1] = molecular target: Beta-2 adrenergic receptor (Homo sapiens, UniProt P07550); experiment: Displacement of [3H]CGP12177 from human recombinant beta2-adrenoceptor expressed in HEK cells after 90 mins by scintillation counting analysis; assay type: cell-based, HEK293
[2] = molecular target: 5-hydroxytryptamine receptor 5A (Homo sapiens, UniProt P47898); experiment: Displacement of [3H]LSD from human recombinant 5-HT5A receptor expressed in CHO cells after 90 mins by scintillation counting analysis; assay type: cell-based
[3] = molecular target: Muscarinic acetylcholine receptor M4 (Homo sapiens, UniProt P08173); experiment: Binding affinity to human recombinant muscarinic M4 receptor expressed in CHO cells after 90 mins by radioligand displacement assay; assay type: cell-based
[4] = Displacement of [3H]Muscimol from GABAA in rat brain after 90 mins by scintillation counting analysis; assay type: tissue-based
[5] = molecular target: T1, 5-hydroxytryptamine receptor 3A (Mus musculus, UniProt P23979); experiment: Antagonist activity at mouse 5-HT3A receptor expressed in Xenopus oocytes assessed as reduction of 5HT-induced current by two-electrode voltage clamp technique; assay type: cell-based, Oocyte
T1 sequence (P23979 whole entry): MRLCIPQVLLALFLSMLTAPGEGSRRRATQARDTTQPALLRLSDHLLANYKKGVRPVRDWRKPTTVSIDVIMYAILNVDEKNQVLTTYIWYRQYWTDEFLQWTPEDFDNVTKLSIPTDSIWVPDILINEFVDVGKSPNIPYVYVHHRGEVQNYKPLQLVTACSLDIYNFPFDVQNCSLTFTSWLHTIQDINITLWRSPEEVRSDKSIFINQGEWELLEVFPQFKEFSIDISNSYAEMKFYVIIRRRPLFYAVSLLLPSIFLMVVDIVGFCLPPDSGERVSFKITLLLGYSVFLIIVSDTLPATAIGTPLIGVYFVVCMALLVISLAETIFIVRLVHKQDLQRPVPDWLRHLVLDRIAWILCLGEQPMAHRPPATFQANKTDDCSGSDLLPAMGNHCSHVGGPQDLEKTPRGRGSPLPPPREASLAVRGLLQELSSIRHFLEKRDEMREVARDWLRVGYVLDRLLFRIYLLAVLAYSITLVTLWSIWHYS

[6] = molecular target: Alpha-2A adrenergic receptor (Homo sapiens, UniProt P08913); experiment: Displacement of [3H]Rauwolscine from human recombinant alpha2A-adrenoceptor expressed in MDCK cells after 90 mins by scintillation counting analysis; assay type: cell-based
[7] = Lipophilicity, log P of the compound by HPLC analysis; assay type: physicochemical
[8] = molecular target: 5-hydroxytryptamine receptor 1A (Homo sapiens, UniProt P08908); experiment: Displacement of [3H]Way100635 from human recombinant 5-HT1A receptor expressed in CHO cells after 90 mins by scintillation counting analysis; assay type: cell-based
[9] = molecular target: 5-hydroxytryptamine receptor 2C (Homo sapiens, UniProt P28335); experiment: Displacement of [3H]Mesulergine from human recombinant 5-HT2C receptor expressed in HEK cells after 90 mins by scintillation counting analysis; assay type: cell-based, HEK293
[10] = molecular target: Sodium-dependent serotonin transporter (Homo sapiens, UniProt P31645); experiment: Displacement of [3H]cfitalopramfrom human recombinant serotonin transporter expressed in HEK cells after 90 mins by scintillation counting analysis; assay type: cell-based, HEK293
[11] = test system: Mus musculus; experiment: Toxicity in ICR mouse assessed as total movement distance at 1 to 3 mg/kg, ip after 15 to 45 mins by locomotor activity assay relative to vehicle-treated control; assay type: organism-based; set-up: route intraperitoneal; conditions: in vivo
[12] = molecular target: Neuronal acetylcholine receptor; alpha3/beta2 (Homo sapiens, UniProt P17787+P32297); experiment: Displacement of [3H]-epibatidine from human alpha3beta2 nAChR transfected in HEK293 cells by scintillation counting analysis; assay type: cell-based
[13] = molecular target: 5-hydroxytryptamine receptor 6 (Homo sapiens, UniProt P50406); experiment: Displacement of [3H]LSD from human recombinant 5-HT6 receptor expressed in HEK cells after 90 mins by scintillation counting analysis; assay type: cell-based, HEK293
[14] = molecular target: Kappa-type opioid receptor (Homo sapiens, UniProt P41145); experiment: Displacement of [3H]U69593 from kappa opioid receptor (unknown origin) expressed in HEK cells after 90 mins by scintillation counting analysis; assay type: cell-based, HEK293
[15] = molecular target: 5-hydroxytryptamine receptor 7 (Homo sapiens, UniProt P34969); experiment: Displacement of [3H]LSD from human recombinant 5-HT7 receptor expressed in HEK cells after 90 mins by scintillation counting analysis; assay type: cell-based, HEK293
[16] = molecular target: Sigma non-opioid intracellular receptor 1 (Cavia porcellus, UniProt Q60492); experiment: Displacement of [3H]Pentazocine from guinea pig sigma1 receptor after 90 mins by scintillation counting analysis
[17] = test system: Mus musculus; experiment: Toxicity in ICR mouse assessed as total movement time at 1 to 3 mg/kg, ip after 15 to 45 mins by locomotor activity assay relative to vehicle-treated control; assay type: organism-based; set-up: route intraperitoneal; conditions: in vivo
[18] = molecular target: T1, 5-hydroxytryptamine receptor 3A; experiment: Displacement of [3H]LY278584 from mouse 5-HT3A receptor
[19] = molecular target: D(4) dopamine receptor (Homo sapiens, UniProt P21917); experiment: Displacement of [3H]N-methylspiperone from dopamine D4 receptor (unknown origin) after 90 mins by scintillation counting analysis
[20] = molecular target: Alpha-2C adrenergic receptor (Homo sapiens, UniProt P18825); experiment: Displacement of [3H]Rauwolscine from human recombinant alpha2C-adrenoceptor expressed in MDCK cells after 90 mins by scintillation counting analysis; assay type: cell-based
[21] = molecular target: Histamine H3 receptor (Homo sapiens, UniProt Q9Y5N1); experiment: Displacement of [3H]-alpha-methylhistamine from human recombinant histamine H3 receptor expressed in HEK cells after 90 mins by scintillation counting analysis; assay type: cell-based, HEK293
[22] = molecular target: Nicotinic acetylcholine receptor alpha2/beta4 (Homo sapiens, UniProt P02708+P30926); experiment: Displacement of [3H]-epibatidine from human alpha2beta4 nAChR transfected in HEK293 cells by scintillation counting analysis; assay type: cell-based
[23] = molecular target: Alpha-1B adrenergic receptor (Homo sapiens, UniProt P35368); experiment: Displacement of [3H]Prazosin from human recombinant alpha1B-adrenoceptor expressed in HEK cells after 90 mins by scintillation counting analysis; assay type: cell-based, HEK293
[24] = molecular target: 5-hydroxytryptamine receptor 1B (Homo sapiens, UniProt P28222); experiment: Displacement of [3H]5-CT from human recombinant 5-HT1B receptor expressed in HEK cells after 90 mins by scintillation counting analysis; assay type: cell-based, HEK293
[25] = molecular target: Muscarinic acetylcholine receptor M2 (Homo sapiens, UniProt P08172); experiment: Binding affinity to human recombinant muscarinic M2 receptor expressed in CHO cells after 90 mins by radioligand displacement assay; assay type: cell-based
[26] = molecular target: Alpha-2B adrenergic receptor (Homo sapiens, UniProt P18089); experiment: Displacement of [3H]Rauwolscine from human recombinant alpha2B-adrenoceptor expressed in HEK cells after 90 mins by scintillation counting analysis; assay type: cell-based, HEK293
[27] = molecular target: 5-hydroxytryptamine receptor 1E (Homo sapiens, UniProt P28566); experiment: Displacement of [3H]5-HT from human recombinant 5-HT1E receptor expressed in HEK cells after 90 mins by scintillation counting analysis; assay type: cell-based, HEK293

Sequence of D(4) dopamine receptor (P21917 whole entry): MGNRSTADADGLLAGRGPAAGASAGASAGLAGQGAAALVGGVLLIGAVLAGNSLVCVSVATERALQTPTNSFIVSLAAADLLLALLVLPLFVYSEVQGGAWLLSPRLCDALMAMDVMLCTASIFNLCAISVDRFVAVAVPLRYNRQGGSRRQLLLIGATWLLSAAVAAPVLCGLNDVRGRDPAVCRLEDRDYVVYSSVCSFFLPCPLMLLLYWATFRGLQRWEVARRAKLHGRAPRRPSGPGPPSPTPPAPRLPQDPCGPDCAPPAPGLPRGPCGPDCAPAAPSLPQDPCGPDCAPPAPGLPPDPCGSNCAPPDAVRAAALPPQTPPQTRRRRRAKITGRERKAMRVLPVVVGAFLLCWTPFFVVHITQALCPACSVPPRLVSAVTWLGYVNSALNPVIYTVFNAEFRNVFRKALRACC
Sequence of Nicotinic acetylcholine receptor alpha2/beta4 (P02708 whole entry): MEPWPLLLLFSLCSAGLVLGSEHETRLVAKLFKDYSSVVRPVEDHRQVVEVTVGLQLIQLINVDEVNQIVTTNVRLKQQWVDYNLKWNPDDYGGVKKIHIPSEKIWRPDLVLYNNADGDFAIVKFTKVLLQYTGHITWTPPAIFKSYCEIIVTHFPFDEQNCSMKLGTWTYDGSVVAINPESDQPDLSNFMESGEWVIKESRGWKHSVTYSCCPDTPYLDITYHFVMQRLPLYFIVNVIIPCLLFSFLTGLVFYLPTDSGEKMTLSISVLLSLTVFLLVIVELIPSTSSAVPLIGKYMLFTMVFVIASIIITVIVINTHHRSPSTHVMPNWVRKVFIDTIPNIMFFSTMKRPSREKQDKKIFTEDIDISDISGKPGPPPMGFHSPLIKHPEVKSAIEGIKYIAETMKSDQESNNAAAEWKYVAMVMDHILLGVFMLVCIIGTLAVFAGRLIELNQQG
Sequence of Nicotinic acetylcholine receptor alpha2/beta4 (P30926 whole entry): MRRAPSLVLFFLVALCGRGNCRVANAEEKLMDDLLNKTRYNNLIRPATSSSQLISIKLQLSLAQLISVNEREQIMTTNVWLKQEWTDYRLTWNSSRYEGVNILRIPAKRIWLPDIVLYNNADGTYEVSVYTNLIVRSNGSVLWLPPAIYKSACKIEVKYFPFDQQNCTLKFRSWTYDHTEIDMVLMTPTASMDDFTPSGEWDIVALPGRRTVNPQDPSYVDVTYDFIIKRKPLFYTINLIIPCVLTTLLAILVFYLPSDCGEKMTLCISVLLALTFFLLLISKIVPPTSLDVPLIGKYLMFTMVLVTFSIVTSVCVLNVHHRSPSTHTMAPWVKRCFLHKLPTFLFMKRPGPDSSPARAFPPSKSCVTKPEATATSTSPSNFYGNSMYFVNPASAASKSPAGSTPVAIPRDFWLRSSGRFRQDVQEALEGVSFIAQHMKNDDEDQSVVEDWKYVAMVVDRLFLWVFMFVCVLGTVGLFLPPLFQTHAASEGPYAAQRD
Sequence of Histamine H3 receptor (Q9Y5N1 whole entry): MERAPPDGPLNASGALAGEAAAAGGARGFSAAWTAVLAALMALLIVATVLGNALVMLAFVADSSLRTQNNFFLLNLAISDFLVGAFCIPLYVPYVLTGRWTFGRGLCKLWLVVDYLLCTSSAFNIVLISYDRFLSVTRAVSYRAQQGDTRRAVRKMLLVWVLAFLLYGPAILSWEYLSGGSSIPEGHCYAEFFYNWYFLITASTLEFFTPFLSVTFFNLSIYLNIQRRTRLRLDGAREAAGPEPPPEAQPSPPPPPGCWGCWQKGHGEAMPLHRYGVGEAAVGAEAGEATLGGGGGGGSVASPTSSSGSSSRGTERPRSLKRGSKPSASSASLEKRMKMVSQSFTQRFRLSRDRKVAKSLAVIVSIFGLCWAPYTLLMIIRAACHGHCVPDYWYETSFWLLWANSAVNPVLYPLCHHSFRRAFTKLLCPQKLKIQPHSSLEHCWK
Sequence of Alpha-1B adrenergic receptor (P35368 whole entry): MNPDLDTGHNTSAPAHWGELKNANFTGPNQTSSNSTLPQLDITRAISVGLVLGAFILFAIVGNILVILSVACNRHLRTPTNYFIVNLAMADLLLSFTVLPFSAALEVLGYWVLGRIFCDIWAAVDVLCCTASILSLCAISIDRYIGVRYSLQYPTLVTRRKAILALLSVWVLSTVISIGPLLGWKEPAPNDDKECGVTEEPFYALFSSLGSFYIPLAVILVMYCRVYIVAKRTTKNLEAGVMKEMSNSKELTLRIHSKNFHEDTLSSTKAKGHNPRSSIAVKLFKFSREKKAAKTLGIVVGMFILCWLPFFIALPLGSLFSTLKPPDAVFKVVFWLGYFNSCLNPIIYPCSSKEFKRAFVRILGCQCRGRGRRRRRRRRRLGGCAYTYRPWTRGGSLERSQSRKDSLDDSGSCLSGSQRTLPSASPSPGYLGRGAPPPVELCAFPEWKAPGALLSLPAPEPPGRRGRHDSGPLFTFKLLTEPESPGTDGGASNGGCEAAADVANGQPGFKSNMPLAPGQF
Sequence of Muscarinic acetylcholine receptor M2 (P08172 whole entry): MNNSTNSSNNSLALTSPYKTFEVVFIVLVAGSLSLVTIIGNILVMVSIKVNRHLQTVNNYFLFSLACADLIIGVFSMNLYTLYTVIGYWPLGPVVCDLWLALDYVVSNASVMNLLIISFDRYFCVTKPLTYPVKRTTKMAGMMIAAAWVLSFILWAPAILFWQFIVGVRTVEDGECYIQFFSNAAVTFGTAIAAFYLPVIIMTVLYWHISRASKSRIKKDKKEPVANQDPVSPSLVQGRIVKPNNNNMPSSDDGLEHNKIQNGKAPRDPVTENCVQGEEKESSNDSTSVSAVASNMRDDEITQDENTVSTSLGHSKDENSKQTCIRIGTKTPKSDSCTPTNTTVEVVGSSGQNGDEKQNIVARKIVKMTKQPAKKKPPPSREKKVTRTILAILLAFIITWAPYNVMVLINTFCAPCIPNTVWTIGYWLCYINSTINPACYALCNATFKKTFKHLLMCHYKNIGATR
Sequence of Alpha-2B adrenergic receptor (P18089 whole entry): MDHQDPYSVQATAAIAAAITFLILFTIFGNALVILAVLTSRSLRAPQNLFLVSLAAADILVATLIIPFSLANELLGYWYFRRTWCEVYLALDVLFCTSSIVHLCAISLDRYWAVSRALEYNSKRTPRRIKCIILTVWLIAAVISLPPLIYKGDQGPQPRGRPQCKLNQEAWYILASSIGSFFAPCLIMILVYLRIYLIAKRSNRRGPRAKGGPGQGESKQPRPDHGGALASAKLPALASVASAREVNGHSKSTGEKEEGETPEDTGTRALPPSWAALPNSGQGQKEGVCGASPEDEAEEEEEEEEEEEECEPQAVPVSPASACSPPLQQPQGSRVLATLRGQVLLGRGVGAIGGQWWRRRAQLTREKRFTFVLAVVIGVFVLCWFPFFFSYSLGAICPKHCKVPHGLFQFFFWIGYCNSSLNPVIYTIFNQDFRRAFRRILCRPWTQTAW
Sequence of Muscarinic acetylcholine receptor M4 (P08173 whole entry): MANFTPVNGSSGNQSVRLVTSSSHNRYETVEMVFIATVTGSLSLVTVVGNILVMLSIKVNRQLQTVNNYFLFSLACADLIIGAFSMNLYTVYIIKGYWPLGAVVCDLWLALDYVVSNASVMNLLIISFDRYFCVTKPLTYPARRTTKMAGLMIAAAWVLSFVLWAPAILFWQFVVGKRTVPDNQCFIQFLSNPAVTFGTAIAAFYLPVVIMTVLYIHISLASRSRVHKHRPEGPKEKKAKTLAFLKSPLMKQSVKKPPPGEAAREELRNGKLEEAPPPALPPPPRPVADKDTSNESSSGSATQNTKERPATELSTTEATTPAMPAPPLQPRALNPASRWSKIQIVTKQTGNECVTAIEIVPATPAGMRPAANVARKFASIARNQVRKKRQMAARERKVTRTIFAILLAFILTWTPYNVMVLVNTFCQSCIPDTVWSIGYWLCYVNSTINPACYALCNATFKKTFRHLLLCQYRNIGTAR
Sequence of Kappa-type opioid receptor (P41145 whole entry): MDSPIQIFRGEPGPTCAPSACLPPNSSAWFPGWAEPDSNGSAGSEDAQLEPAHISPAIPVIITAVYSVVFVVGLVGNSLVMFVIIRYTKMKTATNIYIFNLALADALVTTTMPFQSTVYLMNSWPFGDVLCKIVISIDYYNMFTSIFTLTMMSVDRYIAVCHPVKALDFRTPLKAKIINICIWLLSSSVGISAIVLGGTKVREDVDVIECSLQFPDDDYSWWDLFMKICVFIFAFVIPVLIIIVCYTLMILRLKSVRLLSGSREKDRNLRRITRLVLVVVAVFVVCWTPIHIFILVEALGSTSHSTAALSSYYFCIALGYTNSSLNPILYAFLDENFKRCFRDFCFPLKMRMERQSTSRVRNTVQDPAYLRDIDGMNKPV
Sequence of Beta-2 adrenergic receptor (P07550 whole entry): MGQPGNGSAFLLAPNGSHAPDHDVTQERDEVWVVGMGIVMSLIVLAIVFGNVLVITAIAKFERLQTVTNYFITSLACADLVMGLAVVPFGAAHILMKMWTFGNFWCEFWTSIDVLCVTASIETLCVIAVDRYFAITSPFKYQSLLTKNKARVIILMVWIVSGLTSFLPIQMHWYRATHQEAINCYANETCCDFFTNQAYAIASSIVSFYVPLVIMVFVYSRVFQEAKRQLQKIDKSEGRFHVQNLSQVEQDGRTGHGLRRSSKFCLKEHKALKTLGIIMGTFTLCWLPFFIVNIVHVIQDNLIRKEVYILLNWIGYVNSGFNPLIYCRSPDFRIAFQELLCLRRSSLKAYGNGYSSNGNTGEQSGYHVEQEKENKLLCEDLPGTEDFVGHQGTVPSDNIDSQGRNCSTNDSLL
Sequence of 5-hydroxytryptamine receptor 6 (P50406 whole entry): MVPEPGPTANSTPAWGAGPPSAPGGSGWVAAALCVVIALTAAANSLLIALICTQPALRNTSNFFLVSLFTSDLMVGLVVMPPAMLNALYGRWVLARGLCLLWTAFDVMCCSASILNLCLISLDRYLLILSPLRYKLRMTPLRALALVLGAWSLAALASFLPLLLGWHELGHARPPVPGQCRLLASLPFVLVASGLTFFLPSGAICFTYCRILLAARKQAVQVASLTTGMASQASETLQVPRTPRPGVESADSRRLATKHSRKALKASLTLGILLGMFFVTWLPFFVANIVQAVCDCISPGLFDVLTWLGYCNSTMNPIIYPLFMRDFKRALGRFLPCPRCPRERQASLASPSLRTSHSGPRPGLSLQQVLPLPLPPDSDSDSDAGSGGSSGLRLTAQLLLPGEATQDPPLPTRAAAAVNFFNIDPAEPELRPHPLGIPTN

Structure (SMILES): Cl.NC1=Nc2ccc(Cl)cc2CN1
- Ki [1]: > 10 µM
- Ki [2]: 0.466 µM
- Ki [3]: > 10 µM
- Ki [4]: > 10 µM
- IC50 [5]: 0.26 µM
- Ki [6]: 0.283 µM
- logP [7]: 1.86
- Ki [8]: > 10 µM
- Ki [9]: 0.644 µM
- Ki [10]: > 10 µM
- Activity [11]: Non-toxic
- Ki [12]: > 10 µM
- Ki [13]: > 10 µM
- Ki [14]: > 10 µM
- Ki [15]: 1.16 µM
- Ki [16]: 6.15 µM
- Activity [17]: Non-toxic
- Ki [18]: 0.08 µM
- Ki ([19]; read-out: Ki): 5.8 µM
- Ki ([19]; read-out: pKi (converted)): 5.13 µM
- Ki [20]: 0.84 µM
- Ki [21]: > 10 µM
- Ki [22]: > 10 µM
- Ki [23]: > 10 µM
- Ki [24]: > 10 µM
- Ki [25]: > 10 µM
- Ki [26]: 0.243 µM
- Ki [27]: > 10 µM
